Test results taken from patent publication US10206394B2, “Herbicidal compounds” (Syngenta Participations AG, priority 2014, dated 2019).
Read-outs that look alike come from different tables or passages of the source.

Assays:
Assay in all cases: Glasshouse assay for herbicidal activity (pre- and post-emergence), percentage phytotoxicity
Assay type in all cases: in vivo
[1] = test system: Alopecurus myosuroides (ALOMY); details: Alopecurus myosuroides
How it was run: (§1)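 Herbicide was applied to potted plants sown in standard soil, one day after sowing for PRE and after about 12 days for POST. Visual percentage damage ratings followed at 15 DAA (POST) and 20 DAA (PRE).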

[2] = test system: Echinochloa crus-galli (ECHCG); details: Echinochloa crus-galli
How it was run: as §1

[3] = test system: Avena fatua (AVEFA); details: Avena fatua
How it was run: as §1

[4] = test system: Lolium perenne (LOLPE); details: Lolium perenne
How it was run: as §1

[5] = post-emergence, 360 h, 250 g/ha, post-emergence, 15 DAA, visual assessment (100%=total damage, 0%=no damage), read-out: Post-emergence herbicidal activity (percentage phytotoxicity) ALOMY POST
[6] = pre-emergence, 480 h, 250 g/ha, pre-emergence, 20 DAA, visual assessment (100%=total damage, 0%=no damage), read-out: Pre-emergence herbicidal activity (percentage phytotoxicity) ALOMY PRE
[7] = post-emergence, 360 h, 250 g/ha, post-emergence, 15 DAA, visual assessment (100%=total damage, 0%=no damage), read-out: Post-emergence herbicidal activity (percentage phytotoxicity) ECHCG POST
[8] = pre-emergence, 480 h, 250 g/ha, pre-emergence, 20 DAA, visual assessment (100%=total damage, 0%=no damage), read-out: Pre-emergence herbicidal activity (percentage phytotoxicity) ECHCG PRE
[9] = post-emergence, 360 h, 250 g/ha, post-emergence, 15 DAA, visual assessment (100%=total damage, 0%=no damage), read-out: Post-emergence herbicidal activity (percentage phytotoxicity) AVEFA POST
[10] = pre-emergence, 480 h, 250 g/ha, pre-emergence, 20 DAA, visual assessment (100%=total damage, 0%=no damage), read-out: Pre-emergence herbicidal activity (percentage phytotoxicity) AVEFA PRE
[11] = post-emergence, 360 h, 250 g/ha, post-emergence, 15 DAA, visual assessment (100%=total damage, 0%=no damage), read-out: Post-emergence herbicidal activity (percentage phytotoxicity) LOLPE POST
[12] = pre-emergence, 480 h, 250 g/ha, pre-emergence, 20 DAA, visual assessment (100%=total damage, 0%=no damage), read-out: Pre-emergence herbicidal activity (percentage phytotoxicity) LOLPE PRE

Structure (SMILES) | pest or weed control at 250 g/ha [1, 5] [%] | pest or weed control at 250 g/ha [1, 6] [%] | pest or weed control at 250 g/ha [2, 7] [%] | pest or weed control at 250 g/ha [2, 8] [%] | pest or weed control at 250 g/ha [3, 9] [%] | pest or weed control at 250 g/ha [3, 10] [%] | pest or weed control at 250 g/ha [4, 11] [%] | pest or weed control at 250 g/ha [4, 12] [%] | further results
Cc1cc(-c2ncc(F)cc2F)cc(C)c1C1C(=O)CC(CC(=O)NCc2ccc(F)cc2)C1=O (stereo not drawn) [Compound B72] | 100 | 100 | 100 | 100 | 100 | 70 | 100 | 100 | –
C#CCN(C)C(=O)CC1CC(=O)C(c2c(C)cc(OCC(F)(F)F)cc2C)C1=O (stereo not drawn) [Compound B213] | – | – | – | – | – | – | – | – | pest or weed control at 250 g/ha ([1]; post-emergence, 360 h, POST-emergence, rate 250 g/ha, visual score 15 DAA (100%=total damage, 0%=no damage), read-out: Post-emergence herbicidal activity (percentage phytotoxicity) ALOMY POST): 90%; pest or weed control at 250 g/ha ([1]; pre-emergence, 480 h, PRE-emergence, rate 250 g/ha, visual score 20 DAA (100%=total damage, 0%=no damage), read-out: Pre-emergence herbicidal activity (percentage phytotoxicity) ALOMY PRE): 80%; pest or weed control at 250 g/ha ([2]; post-emergence, 360 h, POST-emergence, rate 250 g/ha, visual score 15 DAA (100%=total damage, 0%=no damage), read-out: Post-emergence herbicidal activity (percentage phytotoxicity) ECHCG POST): 100%; pest or weed control at 250 g/ha ([2]; pre-emergence, 480 h, PRE-emergence, rate 250 g/ha, visual score 20 DAA (100%=total damage, 0%=no damage), read-out: Pre-emergence herbicidal activity (percentage phytotoxicity) ECHCG PRE): 90%; pest or weed control at 250 g/ha ([3]; post-emergence, 360 h, POST-emergence, rate 250 g/ha, visual score 15 DAA (100%=total damage, 0%=no damage), read-out: Post-emergence herbicidal activity (percentage phytotoxicity) AVEFA POST): 90%; pest or weed control at 250 g/ha ([3]; pre-emergence, 480 h, PRE-emergence, rate 250 g/ha, visual score 20 DAA (100%=total damage, 0%=no damage), read-out: Pre-emergence herbicidal activity (percentage phytotoxicity) AVEFA PRE): 50%; pest or weed control at 250 g/ha ([4]; post-emergence, 360 h, POST-emergence, rate 250 g/ha, visual score 15 DAA (100%=total damage, 0%=no damage), read-out: Post-emergence herbicidal activity (percentage phytotoxicity) LOLPE POST): 90%; pest or weed control at 250 g/ha ([4]; pre-emergence, 480 h, PRE-emergence, rate 250 g/ha, visual score 20 DAA (100%=total damage, 0%=no damage), read-out: Pre-emergence herbicidal activity (percentage phytotoxicity) LOLPE PRE): 70%
C#CCN(CC#C)C(=O)CC1CC(=O)C(c2c(C)cc(-c3ncc(F)cn3)cc2C)C1=O (stereo not drawn) [Compound B110] | 100 | 90 | 100 | 100 | 100 | 80 | 90 | 80 | –
Cc1cc(-c2ncccc2F)cc(C)c1C1C(=O)CC(CC(=O)NC(C)(C)C)C1=O (stereo not drawn) [Compound B84] | 100 | 90 | 100 | 100 | 100 | 80 | 100 | 100 | –
Cc1cc(C)c(C2C(=O)CC(CC(=O)N[C@@H]3C[C@@H]3F)C2=O)c(C)c1 (stereo partly drawn) [Compound B81] | 80 | 70 | 80 | 90 | 90 | 0 | 90 | 90 | –
Cc1cc(-c2ncc(F)cc2F)cc(C)c1C1C(=O)CC(CC(=O)NO)C1=O (stereo not drawn) [Compound B403] | – | – | – | – | – | – | – | – | pest or weed control at 250 g/ha ([1]; post-emergence, 360 h, Rate 250 g/ha, post-emergence, visual assessment 15 DAA, 100%=total damage, 0%=no damage, read-out: Post-emergence herbicidal activity (percentage phytotoxicity) ALOMY POST): 90%; pest or weed control at 250 g/ha ([1]; pre-emergence, 480 h, Rate 250 g/ha, pre-emergence, visual assessment 20 DAA, 100%=total damage, 0%=no damage, read-out: Pre-emergence herbicidal activity (percentage phytotoxicity) ALOMY PRE): 60%; pest or weed control at 250 g/ha ([2]; post-emergence, 360 h, Rate 250 g/ha, post-emergence, visual assessment 15 DAA, 100%=total damage, 0%=no damage, read-out: Post-emergence herbicidal activity (percentage phytotoxicity) ECHCG POST): 100%; pest or weed control at 250 g/ha ([2]; pre-emergence, 480 h, Rate 250 g/ha, pre-emergence, visual assessment 20 DAA, 100%=total damage, 0%=no damage, read-out: Pre-emergence herbicidal activity (percentage phytotoxicity) ECHCG PRE): 0%; pest or weed control at 250 g/ha ([3]; post-emergence, 360 h, Rate 250 g/ha, post-emergence, visual assessment 15 DAA, 100%=total damage, 0%=no damage, read-out: Post-emergence herbicidal activity (percentage phytotoxicity) AVEFA POST): 100%; pest or weed control at 250 g/ha ([3]; pre-emergence, 480 h, Rate 250 g/ha, pre-emergence, visual assessment 20 DAA, 100%=total damage, 0%=no damage, read-out: Pre-emergence herbicidal activity (percentage phytotoxicity) AVEFA PRE): 50%; pest or weed control at 250 g/ha ([4]; post-emergence, 360 h, Rate 250 g/ha, post-emergence, visual assessment 15 DAA, 100%=total damage, 0%=no damage, read-out: Post-emergence herbicidal activity (percentage phytotoxicity) LOLPE POST): 80%; pest or weed control at 250 g/ha ([4]; pre-emergence, 480 h, Rate 250 g/ha, pre-emergence, visual assessment 20 DAA, 100%=total damage, 0%=no damage, read-out: Pre-emergence herbicidal activity (percentage phytotoxicity) LOLPE PRE): 20%
